Assay results taken from US20220395472A1 (Dermavant Sciences GmbH, priority 2021, published 2022).

Test system: adults with plaque psoriasis
Assay: Long-term open-label extension study (PSOARING 3): Physician Global Assessment (PGA), treatment episodes, treatment success, remittive effect
Type: in vivo, human
Conditions: for Proportion of subjects who never achieved PGA = 0 or 1 throughout the study / Proportion of subjects who achieved PGA = 0 or 1 at least 1 time during the study: entering with PGA ≥ 2
Experimental: This extension study consisted of up to 40 weeks of treatment and a 4 week, safety follow up period.
At the completion of the Week 12 visit of the DB, pivotal Phase 3 study, eligibility of the subjects opting to enroll in this extension study was confirmed. Study visits during the treatment period for all subjects occurred every 4 weeks (±3 days). A phone call was performed at Week 2 (Day 15). Unscheduled visits may have occurred, as needed. Subjects who withdrew from this study before Week 40 returned to the study center for an Early Termination visit. The total duration of this extension study participation was 44 weeks. Subjects in this study were treated as follows based on their PGA score from the Week 12 visit in the DB, pivotal Phase 3 study (Study DMVT 505 3001 or Study DMVT 505 3002).
The PGA was used to assess the primary efficacy endpoint in this study. The PGA is a clinical tool for assessing the current state/severity of a subject's psoriasis at a given time point. It is a static, 5 point, morphological assessment of overall disease severity, as determined by the Investigator, using the clinical characteristics of erythema, scaling, and plaque thickness/elevation as guidelines; higher PGA scores represent more severe disease (0=clear, 1=almost clear, 2=mild, 3=moderate, and 4=severe). The BSA affected was not considered in scoring of the PGA. Variations of the PGA are frequently used in clinical studies because it is a simple assessment, similar to those used in clinical practice. The PGA was performed first, prior to the % BSA, PASI, and LTS assessments.
Time to event parameters, such as the time from treatment success to subsequent worsening (PGA≥2) or duration of treatment episode, were summarized by the Kaplan Meier product limit method using OC.

[1] = entering with PGA = 0, Kaplan-Meier, Overall
[2] = entering with PGA = 0, Kaplan-Meier, Tapinarof (Pivotal) group
[3] = entering with PGA = 0, Kaplan-Meier, Vehicle (Pivotal) group
[4] = entering with PGA = 0, Tapinarof (Pivotal) group
[5] = entering with PGA = 0, Vehicle (Pivotal) group
[6] = entering with PGA ≥ 1, Kaplan-Meier, Vehicle (Pivotal) group
[7] = entering with PGA ≥ 1, Tapinarof (Pivotal) group
[8] = entering with PGA ≥ 1, Vehicle (Pivotal) group
[9] = final analysis, overall, baseline

CC(C)c1c(O)cc(/C=C/c2ccccc2)cc1O [Tapinarof, 3,5-Dihydroxy-4-isopropyl-trans-stilbene]
PGA 2 - Mild (Week 40 OC, Vehicle (Pivotal)): 35 (31.0) n (%) | PGA 3 - Moderate (Week 40 OC, Vehicle (Pivotal)): 15 (13.3) n (%) | PGA 4 - Severe (Week 40 OC, Vehicle (Pivotal)): 0 (0.0) n (%) | PGA Change from Baseline: Improved by 1 (Week 40 OC, Vehicle (Pivotal)): 41 (36.3) n (%) | PGA Change from Baseline: Improved by 2 (Week 40 OC, Vehicle (Pivotal)): 27 (23.9) n (%) | PGA Change from Baseline: Improved by 3 (Week 40 OC, Vehicle (Pivotal)): 17 (15.0) n (%) | PGA Change from Baseline: Improved by 4 (Week 40 OC, Vehicle (Pivotal)): 1 (0.9) n (%) | PGA Change from Baseline: No Change (Week 40 OC, Vehicle (Pivotal)): 19 (16.8) n (%) | PGA Change from Baseline: Worsened by 1 (Week 40 OC, Vehicle (Pivotal)): 7 (6.2) n (%) | PGA Change from Baseline: Worsened by 2 (Week 40 OC, Vehicle (Pivotal)): 1 (0.9) n (%) | PGA Change from Baseline: Worsened by 3 (Week 40 OC, Vehicle (Pivotal)): 0 (0.0) n (%) | PGA Change from Baseline: Worsened by 4 (Week 40 OC, Vehicle (Pivotal)): 0 (0.0) n (%) | Durability of Response, No. of Subjects (Wk. 0, Overall): 240 | Durability of Response, No. of Subjects (Wk. 0, Tapinarof→Tapinarof): 18 | Durability of Response, No. of Subjects (Wk. 4, Overall): 273 | Durability of Response, No. of Subjects (Wk. 4, Tapinarof→Tapinarof): 216 | Durability of Response, No. of Subjects (Wk. 4, Vehicle→Tapinarof): 57 | Durability of Response, No. of Subjects (Wk. 8, Overall): 330 | Durability of Response, No. of Subjects (Wk. 8, Tapinarof→Tapinarof): 243 | Durability of Response, No. of Subjects (Wk. 8, Vehicle→Tapinarof): 87 | Durability of Response, No. of Subjects (Wk. 12, Overall): 334 | Durability of Response, No. of Subjects (Wk. 12, Tapinarof→Tapinarof): 233 | Durability of Response, No. of Subjects (Wk. 16, Overall): 336 | Durability of Response, No. of Subjects (Wk. 16, Tapinarof→Tapinarof): 239 | Durability of Response, No. of Subjects (Wk. 16, Vehicle→Tapinarof): 97 | Durability of Response, No. of Subjects (Wk. 20, Overall): 358 | Durability of Response, No. of Subjects (Wk. 20, Tapinarof→Tapinarof): 250 | Durability of Response, No. of Subjects (Wk. 24, Overall): 346 | Durability of Response, No. of Subjects (Wk. 24, Tapinarof→Tapinarof): 236 | Durability of Response, No. of Subjects (Wk. 28, Overall): 336 | Durability of Response, No. of Subjects (Wk. 28, Tapinarof→Tapinarof): 230 | Durability of Response, No. of Subjects (Wk. 32, Overall): 339 | Durability of Response, No. of Subjects (Wk. 32, Tapinarof→Tapinarof): 233 | Durability of Response, No. of Subjects (Wk. 36, Overall): 340 | Durability of Response, No. of Subjects (Wk. 36, Tapinarof→Tapinarof): 225 | Durability of Response, No. of Subjects (Wk. 40, Overall): 330 | Durability of Response, No. of Subjects (Wk. 40, Tapinarof→Tapinarof): 224 | Time to First Worsening (PGA ≥ 2), Median (95% CI) (entering with PGA = 0 (n=78), Kaplan-Meier, Overall, interim): 115 (85.0, 162.0) days | Time to First Worsening (PGA ≥ 2), 25th percentile (95% CI) [1]: 54 (29.0, 66.0) days | Time to First Worsening (PGA ≥ 2), 75th percentile (95% CI) [1]: 222 (169.0, 309.0) days | Time to First Worsening (PGA ≥ 2), 25th percentile (95% CI) [2]: 54 (29.0, 76.0) days | Time to First Worsening (PGA ≥ 2), 75th percentile (95% CI) [2]: 196 (168.0, 309.0) days | Time to First Worsening (PGA ≥ 2), Median (95% CI) [2]: 114 (85.0, 142.0) days | Time to First Worsening (PGA ≥ 2), 25th percentile (95% CI) [3]: 66 (42.0, NE) days | Time to First Worsening (PGA ≥ 2), Median (95% CI) [3]: 281 (42.0, NE) days | Proportion of subjects who experienced PGA ≥ 2 at least 1 time during the study (entering with PGA = 0, Overall): 59/78 (75.6) % | Proportion of subjects who never experienced PGA ≥ 2 throughout the study (entering with PGA = 0, Overall): 19/78 (24.4) % | Proportion of subjects who experienced PGA ≥ 2 at least 1 time during the study (entering with PGA = 0, Overall, listed as tapinarof): 75.6% | Proportion of subjects who experienced PGA ≥ 2 at least 1 time during the study [4]: 56/73 (76.7) % | Proportion of subjects who never experienced PGA ≥ 2 throughout the study [4]: 17/73 (23.3) % | Proportion of subjects who experienced PGA ≥ 2 at least 1 time during the study [5]: 3/5 (60.0) % | Proportion of subjects who never experienced PGA ≥ 2 throughout the study [5]: 2/5 (40.0) % | Time to First Achieving PGA = 0, 25th percentile (entering with PGA ≥ 1, Kaplan-Meier, Overall): 141 days | Time to First Achieving PGA = 0, 25th percentile (entering with PGA ≥ 1, Kaplan-Meier, Overall, listed as tapinarof): 141 days | Time to First Achieving PGA = 0, 25th percentile (entering with PGA ≥ 1, Kaplan-Meier, Tapinarof (Pivotal) group): 113 days | Time to First Achieving PGA = 0, 25th percentile (entering with PGA ≥ 1, Kaplan-Meier, Tapinarof (Pivotal) group, listed as tapinarof): 113 days | Time to First Achieving PGA = 0, 25th percentile [6]: 169 days | Time to First Achieving PGA = 0, Median [6]: 313 days | Time to First Achieving PGA = 0, 25th percentile (entering with PGA ≥ 1, Kaplan-Meier, Vehicle (Pivotal) group, listed as tapinarof): 169 days | Proportion of subjects who achieved PGA = 0 at least 1 time during the study (entering with PGA ≥ 1, Overall): 221/681 (32.5) % | Proportion of subjects who never achieved PGA = 0 throughout the study (entering with PGA ≥ 1, Overall): 460/681 (67.5) % | Proportion of subjects who achieved PGA = 0 at least 1 time during the study (entering with PGA ≥ 1, Overall, listed as tapinarof): 32.5% | Proportion of subjects who achieved PGA = 0 at least 1 time during the study [7]: 139/432 (32.2) % | Proportion of subjects who never achieved PGA = 0 throughout the study [7]: 293/432 (67.8) % | Proportion of subjects who achieved PGA = 0 at least 1 time during the study (entering with PGA ≥ 1, Tapinarof (Pivotal) group, listed as tapinarof): 32.2% | Proportion of subjects who achieved PGA = 0 at least 1 time during the study [8]: 82/249 (32.9) % | Proportion of subjects who never achieved PGA = 0 throughout the study [8]: 167/249 (67.1) % | Proportion of subjects who achieved PGA = 0 at least 1 time during the study (entering with PGA ≥ 1, Vehicle (Pivotal) group, listed as tapinarof): 32.9% | Proportion of subjects who never achieved PGA = 0 or 1 throughout the study (Overall): 222/520 (42.7) % | Proportion of subjects who achieved PGA = 0 or 1 at least 1 time during the study (Overall, interim): 298/520 (57.3) % | Proportion of subjects who achieved PGA = 0 or 1 at least 1 time during the study (Overall, interim, listed as tapinarof): 57.3% | Proportion of subjects who achieved PGA = 0 or 1 at least 1 time during the study (Tapinarof (Pivotal) group): 154/288 (53.5) % | Proportion of subjects who never achieved PGA = 0 or 1 throughout the study (Tapinarof (Pivotal) group): 134/288 (46.5) % | Proportion of subjects who achieved PGA = 0 or 1 at least 1 time during the study (Tapinarof (Pivotal) group, listed as tapinarof): 53.5% | Proportion of subjects who achieved PGA = 0 or 1 at least 1 time during the study (Vehicle (Pivotal) group): 144/232 (62.1) % | Proportion of subjects who never achieved PGA = 0 or 1 throughout the study (Vehicle (Pivotal) group): 88/232 (37.9) % | Proportion of subjects who achieved PGA = 0 or 1 at least 1 time during the study (Vehicle (Pivotal) group, listed as tapinarof): 62.1% | Patients entering with PGA≥2 who achieved PGA 0 or 1 at least once during the study (final analysis): 58.2% | Patients who achieved complete disease clearance (PGA=0) at least once during the study (final analysis, 312/763): 40.9% | participants with PGA=0 or 1 (final analysis, overall, Week 40): 44.3% | participants with PGA=0 [9]: 10.4% | participants with PGA=0 or 1 [9]: 31.6% | mean total duration of remittive effect (final analysis, patients entering with, or achieving, PGA=0 (n=312)): 130 days
